Source: patent publication US20050170052A1, “Water and feed preservative for animal uses” (priority 2004, published 2005)
Read-outs that look alike come from different tables or passages of the source.

Tests used:
[1] = system: E. coli; assay: Biocidal effect of terpenes in organic preservative-free apple juice (Example 7); assay type: cell-based; conditions: 250 ppm in unpasteurized apple juice, E. coli added, one week room temperature
Protocol: To 100 ml of unpasteurized apple juice was added different concentration of terpenes varying from 0 to 250 ppm. After mixing, 0.5 ml of 1×10^6 cfu E. coli was added to each juice/terpene mixture and incubated at room temperature for a week. After incubation, 0.1 ml of each of the solutions was plated onto nutrient agar and incubated for 18 hours at 37° C. Results are expressed as cfu/ml and percent reduction as compared to control.

[2] = assay type: physicochemical; conditions: buffer, 1000 ppm
Protocol: (§1) A solution containing 1000 ppm citral in distilled water was homogenized with a high speed homogenizer. This solution was stored in a beaker covered with porous paper for a week. The concentration of citral remaining after a week was determined by a gas chromatography. A standard curve was prepared with reagent grade citral to which b-ionone was used as internal standard. At the beginning of the study and after a week the concentration of citral was determined by plotting it on the standard curve.

[3] = assay type: physicochemical; conditions: buffer, 1000 ppm; remark: listed apart in the source
Protocol: as §1, with “closed glass bottle” for “beaker covered with porous paper”, “four weeks. Concentration” for “a week. The concentration”, “remaining” for “remaining after a week”, “weekly” for “after a week”

[4] = system: E. coli; conditions: cited from earlier work

CC(=O)/C=C/C1=C(C)CCCC1(C)C [B-ionone]
% reduction [1]: 100% | cfu/ml [1]: 0 cfu/ml

CC(C)=CCCC(C)=CC=O [Citral, citral]
Percentage of citral remaining, Week 1 ([2]; 1 week): 21.5% | Percentage of citral remaining, Day 1 ([2]; 1 day): 100% | Percentage of citral remaining, Week 1 ([3]; 1 week): 32% | Percentage of citral remaining, Week 2 ([3]; 2 week): 27% | Percentage of citral remaining, Week 4 ([3]; 4 week): 22% | Percentage of citral remaining, Day 1 ([3]; 1 day): 100% | citral concentration in growth media that reduced the concentration of E. coli [4]: more than 0.01% | citral concentration with bactericidal effect ([4]; growth media): 0.08% | % reduction [1]: 100% | cfu/ml [1]: 0 cfu/ml
